Measurements taken from patent US20140242093A1, “METHODS AND COMPOSITIONS FOR MODULATING THE INNATE IMMUNE RESPONSE AND/OR MYOGENESIS IN A MAMMALIAN SUBJECT” (FRED HUTCHINSON CANCER RESEARCH CENTER, priority 2011, published 2014).

Experiments:
[1] = system: HCT116 cells; assay: RT-PCR of DUX4-fl and cancer testis antigens in HCT116 cells treated with azacytidine; assay type: cell-based, human
Description: The relative expression of the CTA in each row was measured by RT-PCR and represented as high (light shading) or low (dark shading).

[2] = system: Human FSHD myoblasts; assay: siRNA knock-down of UPF1 in FSHD myoblasts; assay type: cell-based
Description: Method for transfection of myoblasts with siUPF1 (siRNA against UPF1): Human FSHD myoblasts were plated for transfection at 30% confluency in F10 media containing 20% FBS and no antibiotics. siRNA targeting siUPF1 (ThermoScientific) was transfected at 100 nM final concentration using Lipofectamine 2000 according to manufacturers protocol. siLuciferase was used as a negative control. Following overnight incubation of cells with transfection complexes the cells were washed with PBS and fed fresh growth media: F10 media, 20% FBS, dexamethasone (1 uM) and fgf (10 ng/ml). When cultures reached confluency growth media was replaced with serum free differentiation media (F10 media, insulin and transferrin at 10 ug/ml each) and culture continued for 48 hours. Total RNA was isolated using Qiagen RNeasy columns and analysis for expression of Dux4 mRNA and for target gene activation was performed.

[3] = system: FSHD muscle cells; assay: DUX4-fl mRNA RT-PCR in FSHD muscle cells treated with MAO inhibitors; assay type: cell-based, human; conditions: for abundance of DUX4-fl mRNA: quantitative RT-PCR, FIG. 4
From the text: Middle panel is a no RT control and bottom panel is a GAPDH loading control.

[4] = system: control human primary myoblasts; assay: Expression microarray of primary myoblasts transduced with lentivirus carrying DUX4-fl, DUX4-s or GFP
Description: Primary human myoblasts were collected and cultured as previously described (Snider et al., 2010). Primary myoblasts were maintained at or below 70% confluency for proliferation. For differentiation, cells were allowed to reach 95-100% confluency in growth medium. Once confluency was reached, the cells were changed to differentiation medium (F10 media supplemented with 1% horse serum, 10 μg/mL insulin, and 10 μg/mL transferrin, penicillin/streptomycin) and maintained for 4 days. Human RD cells were grown in DMEM in 10% bovine calf serum (Hyclone) and penicillin/streptomycin. The primary myoblasts were transduced with lentivirus carrying DUX-fl, DUX4- or GFP (MOI=15).
Expression microarrays were performed on the transduced cells at 24 hours after transduction as follows. […] Samples were analyzed by Illumina Human Whole Genome microarrays. Probe intensities were corrected, normalized, and summarized by the Lumi package of Bioconductor (Du et al., 2008). Differentially expressed genes were identified by the LIMMA package of Bioconductor (Wettenhall and Smyth, 2004). Gene set enrichment analysis (GSEA) was performed using the Bioconductor GOstats package (Falcon and Gentleman, 2007).

[5] = system: FSHD fibroblasts; assay: DUX4 mRNA decay with cycloheximide in FSHD fibroblasts with inducible MyoD; assay type: cell-based, human; conditions: 38 hours in differentiation conditions, MyoD induction
Description: FSHD fibroblasts expressing low amounds of DUX4 mRNA were stably transduced with a beta-estradiol inducible MyoD so that addition of beta-estradiol will convert them to skeletal muscle, which after 96 hours of induction increases the steady-state levels of the DUX4 mRNA and activates expression of the MyoD target Mgn. […] Washout of the chx results in the rapid loss of the DUX4 mRNA, disappearing between 2 and 8 hrs of washout. The loss of DUX4 mRNA is associated with its translation since the DUX4 target PRAME 1 is induced as the DUX4 mRNA disappears.

With `Nc1ncn([C@@H]2O[C@H](CO)[C@@H](O)[C@H]2O)c(=O)n1` [5-azacytidine] the “expression of cancer testis antigens” value ([1]; RT-PCR heat map FIG. 3, HCT116 cells) was “robust induction” and the DUX4-fl expression ([1]; RT-PCR, HCT116 cells) was “induces the expression of DUX4-fl”.
With GAUGCAGUUCCGCUCCAUUUU [siUPF1] the “expression of DUX4 target gene ZSCAN4” value ([2]; RT-qPCR) was “increases” and the “DUX4 mRNA” value ([2]; semiquantitative RT-PCR, differentiation medium, vs siluc) was “at higher levels”.
`N[C@@H]1C[C@H]1c1ccccc1` (racemic) [tranylcypromine] was tested, and the “abundance of DUX4-fl mRNA” value [3] was “had no inhibitory effect”.
For `C#CCN(C)Cc1ccccc1` [pargyline, N-Benzyl-N-methylprop-2-yn-1-amine], the “DUX4 mRNA expression” value ([3]; RT-PCR, 48 hours in differentiation medium, varying amounts, FIG. 5) was “dose-dependent inhibition of DUX4 expression” and the “abundance of DUX4-fl mRNA” value [3] was “decreases the abundance of DUX4-fl mRNA in a dose-dependent manner”.
DUX4 was tested, and the Fc range ([4]; Family with sequence similarity 90: FAM90A1, FAM90A2P, FAM90A6P, FAM90A7) was 9-19, the Fc range ([4]; KH homology domain containing family: KHDC1, KHDC1L) was 108-258 and the Fc range ([4]; Methyl-binding protein-like family: MBD3L2, MBD3L3, MBD3L5) was 197-310. For the same molecule, the Fc range ([4]; Preferentially expressed in melanoma family: PRAMEF1, PRAMEF2, PRAMEF4-15, PRAMEF17, PRAMEF20) was 9-269, the Fc range ([4]; Ret-finger Protein-like family: RFPL1, RFPL1S, RFPL2, RFPL3, RFPL4A, RFPL4B) was 20-336 and the Fc range ([4]; Tripartite motif-containing family: TRIM43, TRIM48, TRIM49, TRIM53, TRIM64) was 27-235. The Fc range ([4]; Zinc finger and SCAN domain containing family: ZSCAN4, ZSCAN5B, ZSCAN5D) was 13-320.
`C[C@@H]1C[C@@H]([C@H](O)CC2CC(=O)NC(=O)C2)C(=O)[C@@H](C)C1` [cycloheximide] was tested, and the “DUX4 mRNA” value [5] was “significant increase in DUX4 mRNA”.
